Patent US10082498B2, “Methods for treating ADHD and bipolar disorder using a membrane potential ratio test” (PSYCHNOSTICS, LLC., priority 2013, dated 2018)
Structures can show the parent of a compound that is named as a salt.

What was measured:
[1] = tested on: human patient with BD or ADHD; test: Clinical response of outpatient psychiatric patients to medication (clinical vignettes); format: in vivo; settings: for Clinical stabilization of Bipolar I Disorder: Example 4, person, combination: aripiperazole, citalopram, oxcarbazepine and alprazolam
Procedure: (§1) Certain patients from the outpatient private psychiatric practice were retested after widely varying intervals as shown in the following Examples. Participation was completely voluntary and only allowed after the signing of a consent form. For the purpose of maintaining the privacy of the subject the lab work was performed confidentially (called blinding of the tester). Each patient was assigned an identification (ID) number and only the clinician had access to the key which correlated ID numbers with patient names.

whole blood cells = test: Membrane potential ratio (MPR) test on blood cells of patients under drug treatment; format: in vivo, human; settings: for MPR value: Example 6, patient with ADHD
Procedure: The MPR™ test is used to diagnose BD and ADHD. Briefly, the MPR™ test involves measuring the membrane potential of the human cells in a test buffer and in a reference buffer and calculating the ratio of these membrane potentials.
Briefly, the membrane potentials of whole blood cells are measured using two different buffers in a plate reader. The mean MPR™ value is the ratio between the membrane potential of a patient's cells in the test buffer as the numerator and that in the reference buffer as the denominator determined by statistical analysis of multiple measurements, using the ANOVA and the multiple statistical regression analysis.
The membrane potential of a patient's cells may be ascertained by any conventional method, such as by examining the fluorescence intensity of a potential-sensitive lipophilic fluorescent dye. The membrane potential is directly proportional to the intensity of fluorescence according to the following equation: I=CV, wherein I is the fluorescence intensity of a lipophilic fluorescent dye, V is the voltage or membrane potential, and C is a constant that can vary depending on a number of factors such as, but not limited to, temperature, lamp intensity, number of cells, concentration of the fluorescent dye, incubation time, and lipid composition of cells used. The calibration and determination of the value for C can be a cumbersome and unreliable procedure. Thus, according to the present invention, by using the ratio of the fluorescence intensity (I1) of one sample of cells to the fluorescence intensity (I2) of another sample of cells, the constant (C) is canceled out. Such ratio-metric measurements are preferred over absolute measurements.
as §1

human patient = test: Side effects reported by patients on medication; format: in vivo; settings: for Side effects: Example 5, combination: sertraline 50 mg per day and lamotrigine 200 mg per day
human patient with ADHD = test: WHO screener for ADHD symptoms (patient self-report); format: in vivo; settings: for WHO screener, score on the 6 screening items / WHO screener, score out of the total possible of 18: Example 5, combination: sertraline 50 mg per day and lamotrigine 200 mg per day
Procedure: Certain patients from the outpatient private psychiatric practice were retested after widely varying intervals as shown in the following Examples. Participation was completely voluntary and only allowed after the signing of a consent form. For the purpose of maintaining the privacy of the subject the lab work was performed confidentially (called blinding of the tester). Each patient was assigned an identification (ID) number and only the clinician had access to the key which correlated ID numbers with patient names. Because these were and are patients presenting for treatment, the priority has been their treatment. They have manifested all the typical variability found in clinical practice, and the resulting data points obtained are those possible under these circumstances. The paired MPR™ results are presented along with clinical vignettes. The patients with repeated tests are shown in example 1 and their vignettes are elucidated here. This clinical data and its interpretation provide the basis for the claims of the invention.

[2] = Example 3, person with BD, combination: lithium, quetiapine and mirtazapine (B in FIG. 3)
[3] = Example 2, combination: dextroamphetamine sulfate 5 mg three times per day and extended release dexmethylphenidate 20 mg morning and afternoon (C in FIG. 2)
[4] = Example 4, combination: escitalopram 10 mg per day, aripiperazole 2 mg per day, alprazolam 0.5 mg twice a day as needed, tapering from oxcarbazepine (A in FIG. 4)
[5] = Example 5, combination: sertraline 50 mg per day and lamotrigine 200 mg per day (B in FIG. 5)
[6] = Example 1, combination: selegiline transdermal 12 mg per 24 hours and mixed amphetamine salts 15 mg per day

Question: With NC(=O)N1c2ccccc2CC(=O)c2ccccc21 [oxcarbazepine] as the molecule, how does the “Clinical stabilization of Bipolar I Disorder” value (shortened to “Clinical stabilization”) [1] read?
Answer: not fully stabilized

Question: What does the source list for OCCOCCN1CCN(C2=Nc3ccccc3Sc3ccccc32)CC1 [quetiapine]?
Answer: MPR result range (whole blood cells; [2]): negative (normal) range; MPR test range (whole blood cells; Example 4, after addition of lithium 600 mg per day and Seroquel 100 mg at bedtime (B in FIG. 4)): ADHD range; Mood stabilization ([1]; Example 4, addition of lithium 600 mg per day and Seroquel 100 mg at bedtime): further stabilized clinically

Question: For C[C@H](N)Cc1ccccc1 [dextroamphetamine sulfate], which “MPR test result range” value (whole blood cells; [3]) is on record?
Answer: ADHD transition range

Question: Which MPR test range (whole blood cells; [4]) does the source give for O=C1CCc2ccc(OCCCCN3CCN(c4cccc(Cl)c4Cl)CC3)cc2N1 [aripiperazole] here?
Answer: bipolar transition range

Question: And the “Clinical stabilization” value [1]?
Answer: not fully stabilized

Question: With CN1CCN2c3ncccc3Cc3ccccc3C2C1 (stereo not drawn) [mirtazapine] as the molecule, how does the MPR result range (whole blood cells; [2]) read?
Answer: negative (normal) range

Question: And the “Outcome of trial of adding the drug (depression)” value ([1]; Example 1, added to mixed amphetamine salts)?
Answer: unsuccessful

Question: Which “Clinical benefit by history” value ([1]; Example 5, earlier treatment, patient history) does the source give for CC(NC(C)(C)C)C(=O)c1cccc(Cl)c1 (stereo not drawn) [bupropion] here?
Answer: had not offered a benefit

Question: What does the source list for CN[C@H]1CC[C@@H](c2ccc(Cl)c(Cl)c2)c2ccccc21 [sertraline]?
Answer: MPR result range (whole blood cells; [5]): ADHD range; MPR result range (whole blood cells; Example 5, initial evaluation, subject on sertraline 100 mg at bedtime (A in FIG. 5)): BD transition range; Side effects (human patient): without complaint of side effects; Clinical effect on depression according to the subject ([1]; Example 5, person, 100 mg at bedtime): no longer working; WHO screener, score on the 6 screening items (human patient with ADHD): 0; WHO screener, score out of the total possible of 18 (human patient with ADHD): 1

Question: For COC(=O)[C@H](c1ccccc1)[C@H]1CCCCN1 [extended release dexmethylphenidate, dexmethylphenidate], which “MPR test result range” value (whole blood cells; [3]) is on record?
Answer: ADHD transition range

Question: What about the “Clinical benefit as reported by patient” value ([1]; Example 2, combination of dextroamphetamine and extended release dexmethylphenidate, compared with mixed amphetamine salts 40 mg) of the same molecule?
Answer: not working as well

Question: For C#CCN(C)[C@H](C)Cc1ccccc1 [selegiline transdermal, selegiline], which “WHO screener, positive items of the six items” value (“WHO screener … of the six items” below) (human patient with ADHD; [6]) is on record?
Answer: 1

Question: For COC(=O)C(c1ccccc1)C1CCCCN1 (stereo not drawn) [methylphenidate], which MPR value (whole blood cells; 10 mg (FIG. 6)) is on record?
Answer: close to the BD side of the negative range

Question: And the MPR value (whole blood cells; dose reduced to 5 mg (FIG. 6))?
Answer: moved up close to the right value

Question: And the “Clinical effect on ADHD symptoms reported by subject” value ([1]; Example 4, 10 mg twice per day, later 10 mg three times per day, added to BD medication)?
Answer: benefit

Question: Which MPR test range (whole blood cells; [4]) does the source give for Cc1nnc2n1-c1ccc(Cl)cc1C(c1ccccc1)=NC2 [alprazolam] here?
Answer: bipolar transition range

Question: What about the “Clinical stabilization” value [1] of the same molecule?
Answer: not fully stabilized

Question: For Nc1nnc(-c2cccc(Cl)c2Cl)c(N)n1 [lamotrigine], which MPR result range (whole blood cells; [5]) is on record?
Answer: ADHD range

Question: What about the Side effects (human patient) of the same molecule?
Answer: without complaint of side effects

Question: What about the Clinical benefit ([1]; Example 5, tapered up as per a starter pack, subject able to return to work) of the same molecule?
Answer: offered benefit quickly

Question: What about the “WHO screener, score on the 6 screening items” value (human patient with ADHD) of the same molecule?
Answer: 0

Question: And the “WHO screener, score out of the total possible of 18” value (human patient with ADHD)?
Answer: 1

Question: For CN(C)CCC[C@@]1(c2ccc(F)cc2)OCc2cc(C#N)ccc21 [escitalopram], which MPR test range (whole blood cells; [4]) is on record?
Answer: bipolar transition range

Question: mixed amphetamine salts was tested. Which MPR value range (whole blood cells; Example 1, blood drawn third week after stopping mixed amphetamine salts (B in FIG. 1)) did it give?
Answer: ADHD range

Question: What about the MPR value range (whole blood cells; Example 1, person, taking only mixed amphetamine salts (A in FIG. 1)) of the same molecule?
Answer: negative (normal) range

Question: What about the “MPR test result range” value (whole blood cells; Example 2, 40 mg every morning, with lamotrigine for BD (B in FIG. 2)) of the same molecule?
Answer: negative range

Question: What about the “Symptomatic control of ADHD” value ([1]; Example 2, 40 mg every morning) of the same molecule?
Answer: good symptomatic control

Question: And the “WHO screener … of the six items” value (human patient with ADHD; [6])?
Answer: 1

Question: What about the “WHO screener, positive items of the 6 items” value (human patient with ADHD; Example 1, taking only mixed amphetamine salts) of the same molecule?
Answer: 3

Question: What about the “WHO screener, positive items of the 6 items” value (human patient with ADHD; Example 1, two weeks after stopping mixed amphetamine salts) of the same molecule?
Answer: 4

Question: What about the “WHO screener … of the six items” value (human patient with ADHD; Example 2, 40 mg every morning) of the same molecule?
Answer: two

Question: How did the “Side effect leading to discontinuation” value (human patient; Example 3, very low dosage for neurotic anxiety) turn out when OCCN1CCN(CCCN2c3ccccc3Sc3ccc(Cl)cc32)CC1 [perphenazine] was run?
Answer: blurred vision
